From PubChem BioAssay AID256 (DTP/NCI, 2004) come the findings set out here.

Values joined by “and” are separate entries in the source; they are usually repeats but may differ in a detail not shown here. Equal values may be shown once. Inconclusive results and toxic doses are left out. Residues, ends and D or L forms follow the SMILES beside them.

The assay has as its system CD2F1 mice, L1210 leukemia ip, survival T/C. Kind of assay: NCI In Vivo Anticancer Drug Screen. Data for tumor model L1210 Leukemia (intraperitoneal) in CD2F1 (CDF1) mice. Conditions: higher = longer survival. In a few lines: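 Compound-dosed mice with transplantable tumor versus matched vehicle controls; endpoint ratio T/C reported.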
The mark [1] stands for this setting: endpoint: mean survival time, dose: 100.0 mg/kg/injection, schedule: Q01DX009 (ip), vehicle: saline with Tween-80.
[2] abbreviates: endpoint: mean survival time, dose: 100.0 mg/kg/injection, schedule: Q04DX003 (ip), vehicle: saline with Tween-80.
[3] abbreviates: endpoint: mean survival time, dose: 200.0 mg/kg/injection, schedule: Q01DX009 (ip), vehicle: saline with Tween-80.
The mark [4] stands for this setting: endpoint: mean survival time, dose: 200.0 mg/kg/injection, schedule: Q04DX003 (ip), vehicle: saline with Tween-80.
[5] abbreviates: endpoint: mean survival time, dose: 400.0 mg/kg/injection, schedule: Q01DX009 (ip), vehicle: saline with Tween-80.
Where [6] appears, read: endpoint: mean survival time, dose: 400.0 mg/kg/injection, schedule: Q04DX003 (ip), vehicle: saline with Tween-80.
[7] abbreviates: endpoint: mean survival time, dose: 50.0 mg/kg/injection, schedule: Q01DX009 (ip), vehicle: saline with Tween-80.
Where [8] appears, read: endpoint: mean survival time, dose: 12.5 mg/kg/injection, schedule: Q01DX009 (ip), vehicle: saline with Tween-80.

As for `COc1ccc2c(c1OC)C(=O)OC2c1cc(Br)c(O)c(C2OC(=O)c3c2ccc(OC)c3OC)c1` (stereo not given), the T/C reads like this: under setting [1], 101 % of control; under setting [2], 92 % of control; under setting [3], 101 % of control; under setting [4], 93 % of control; under setting [5], 98 % of control; under setting [6], 90 % of control.
Take `CCCCOC(=O)CSSCC(=O)OCCCC`: the T/C under setting [7] was 101 % of control, the T/C under setting [1] is 101 % of control and the T/C under setting [3] is 93 % of control.
As for `CC(C)C(NC(=O)C(NC(=O)C(CCCN=C(N)N)NC(=O)C(N)CCCCN)C(C)C)C(N)=O` (stereo not given) (H-KRVV-NH2; configuration not given here), the T/C reads like this: (endpoint: mean survival time, dose: 25.0 mg/kg/injection, schedule: Q01DX009 (ip), vehicle: water) 95 % of control; (endpoint: mean survival time, dose: 50.0 mg/kg/injection, schedule: Q01DX009 (ip), vehicle: water) 100 % of control; (endpoint: mean survival time, dose: 100.0 mg/kg/injection, schedule: Q01DX009 (ip), vehicle: water) 108 % of control; (endpoint: mean survival time, dose: 200.0 mg/kg/injection, schedule: Q01DX009 (ip), vehicle: water) 103 % of control.
Consider `O=c1[nH]c2ccccc2nc1CBr`, for which the T/C is 98 % of control (endpoint: mean survival time, dose: 3.75 mg/kg/injection, schedule: Q01DX009 (ip), vehicle: saline with Tween-80); 110 % of control (endpoint: mean survival time, dose: 7.5 mg/kg/injection, schedule: Q01DX009 (ip), vehicle: saline with Tween-80); 113 % of control under setting [8]; 104 % of control (endpoint: mean survival time, dose: 15.0 mg/kg/injection, schedule: Q01DX009 (ip), vehicle: saline with Tween-80).
With `O=C1N(C2CCCCC2)CC2C(c3cccnc3)NNC12O` (stereo not given), the T/C by setting is: (endpoint: mean survival time, dose: 100.0 mg/kg/injection, schedule: Q01DX001 (ip), vehicle: saline with Tween-80) 97 % of control; (endpoint: mean survival time, dose: 200.0 mg/kg/injection, schedule: Q01DX001 (ip), vehicle: saline with Tween-80) 87 % of control.
Consider `N[C@@H](C[C@H]1CCC(=O)[C@@H]2O[C@H]12)C(=O)O`, for which the T/C was 117 % of control and 107 % of control (endpoint: mean survival time, dose: 100.0 mg/kg/injection, schedule: Q04DX002 (ip), vehicle: saline); 167 % of control (endpoint: mean survival time, dose: 400.0 mg/kg/injection, schedule: Q04DX002 (ip), vehicle: saline); 113 % of control and 110 % of control (endpoint: median survival time, dose: 50.0 mg/kg/injection, schedule: Q01DX005 (ip), vehicle: saline); 122 % of control and 124 % of control (endpoint: median survival time, dose: 100.0 mg/kg/injection, schedule: Q01DX005 (ip), vehicle: saline); 110 % of control (endpoint: median survival time, dose: 144.0 mg/kg/injection, schedule: Q01DX005 (ip), vehicle: saline); 119 % of control (endpoint: median survival time, dose: 172.8 mg/kg/injection, schedule: Q01DX005 (ip), vehicle: saline). Further, the T/C (endpoint: median survival time, dose: 240.0 mg/kg/injection, schedule: Q01DX005 (ip), vehicle: saline) was 114 % of control; the T/C (endpoint: median survival time, dose: 288.0 mg/kg/injection, schedule: Q01DX005 (ip), vehicle: saline) was 121 % of control; the T/C (endpoint: median survival time, dose: 800.0 mg/kg/injection, schedule: Q01DX005 (ip), vehicle: saline) was 155 % of control.
With `c1ccc(-c2csc3c4ccccc4c4ccccc4[n+]23)cc1`, the T/C reads like this: (endpoint: mean survival time, dose: 0.5 mg/kg/injection, schedule: Q01DX009 (ip), vehicle: saline) 104 % of control; (endpoint: mean survival time, dose: 1.0 mg/kg/injection, schedule: Q01DX009 (ip), vehicle: saline) 112 % of control; (endpoint: mean survival time, dose: 2.0 mg/kg/injection, schedule: Q01DX009 (ip), vehicle: saline) 112 % of control; (endpoint: mean survival time, dose: 4.0 mg/kg/injection, schedule: Q01DX009 (ip), vehicle: saline) 106 % of control; (endpoint: mean survival time, dose: 8.0 mg/kg/injection, schedule: Q01DX009 (ip), vehicle: saline) 101 % of control.
In the case of `O=C1Nc2ccccc2/C1=N/N=P(c1ccccc1)(c1ccccc1)c1ccccc1`, the T/C is 100 % of control (endpoint: median survival time, dose: 50.0 mg/kg/injection, schedule: Q04DX002 (ip), vehicle: saline with Tween-80); 110 % of control (endpoint: median survival time, dose: 100.0 mg/kg/injection, schedule: Q04DX002 (ip), vehicle: saline with Tween-80); 100 % of control (endpoint: median survival time, dose: 200.0 mg/kg/injection, schedule: Q04DX002 (ip), vehicle: saline with Tween-80); 100 % of control (endpoint: median survival time, dose: 400.0 mg/kg/injection, schedule: Q04DX002 (ip), vehicle: saline with Tween-80).
With `CC(=O)NC(CCC(=O)O)C(=O)O.[NH-]C1CCCCC1[NH-].[Pt+2]` (stereo not given), the T/C is, setting by setting: (endpoint: median survival time, dose: 6.25 mg/kg/injection, schedule: Q04DX003 (ip), vehicle: saline) 97 % of control; (endpoint: median survival time, dose: 12.5 mg/kg/injection, schedule: Q04DX003 (ip), vehicle: saline) 110 % of control; (endpoint: median survival time, dose: 25.0 mg/kg/injection, schedule: Q04DX003 (ip), vehicle: saline) 102 % of control; (endpoint: median survival time, dose: 50.0 mg/kg/injection, schedule: Q04DX003 (ip), vehicle: saline) 97 % of control; (endpoint: median survival time, dose: 100.0 mg/kg/injection, schedule: Q04DX003 (ip), vehicle: saline) 112 % of control.
In the case of `CCOC(=O)C1CC2(CC(C(N)=O)C2)C1` (stereo not given), the T/C (endpoint: mean survival time, dose: 100.0 mg/kg/injection, schedule: Q01DX001 (ip), vehicle: saline) is 103 % of control; the T/C (endpoint: mean survival time, dose: 200.0 mg/kg/injection, schedule: Q01DX001 (ip), vehicle: saline) is 100 % of control; the T/C (endpoint: mean survival time, dose: 400.0 mg/kg/injection, schedule: Q01DX001 (ip), vehicle: saline) is 93 % of control.
Regarding `O=C1c2ccccc2C(=O)N1CBr`, the T/C under setting [8] was 100 % of control; the T/C (endpoint: mean survival time, dose: 25.0 mg/kg/injection, schedule: Q01DX009 (ip), vehicle: saline with Tween-80) was 97 % of control; the T/C under setting [7] is 98 % of control.
With `CC[N+](CC)(CC)CC`, the T/C is, setting by setting: (endpoint: mean survival time, dose: 0.37 mg/kg/injection, schedule: Q01DX009 (ip), vehicle: saline with Tween-80) 110 % of control; (endpoint: mean survival time, dose: 0.75 mg/kg/injection, schedule: Q01DX009 (ip), vehicle: saline with Tween-80) 96 % of control; (endpoint: mean survival time, dose: 1.5 mg/kg/injection, schedule: Q01DX009 (ip), vehicle: saline with Tween-80) 96 % of control; (endpoint: mean survival time, dose: 3.0 mg/kg/injection, schedule: Q01DX009 (ip), vehicle: saline with Tween-80) 100 % of control; (endpoint: mean survival time, dose: 6.0 mg/kg/injection, schedule: Q01DX009 (ip), vehicle: saline with Tween-80) 110 % of control; (endpoint: mean survival time, dose: 6.25 mg/kg/injection, schedule: Q04DX003 (ip), vehicle: saline with Tween-80) 100 % of control. The T/C is 96 % of control (endpoint: mean survival time, dose: 12.0 mg/kg/injection, schedule: Q01DX009 (ip), vehicle: saline with Tween-80); 88 % of control under setting [8]; 100 % of control (endpoint: mean survival time, dose: 12.5 mg/kg/injection, schedule: Q04DX003 (ip), vehicle: saline with Tween-80).
On to `CCOC(=O)CC1=Nc2c(Cl)ncnc2NN1`, for which the T/C is, setting by setting: (endpoint: mean survival time, dose: 100.0 mg/kg/injection, schedule: Q01DX001 (ip), vehicle: carboxymethylcellulose (CMC)) 95 % of control; (endpoint: mean survival time, dose: 200.0 mg/kg/injection, schedule: Q01DX001 (ip), vehicle: carboxymethylcellulose (CMC)) 91 % of control.
As to `CCCCCCCN(CCCCCCC)CC(O)c1cc2ccc(Br)cc2c2cccnc12` (stereo not given), the T/C under setting [1] was 95 % of control and the T/C under setting [3] is 92 % of control.
For `COC(=O)c1ccc(-c2ccccc2)cc1`, the T/C (endpoint: mean survival time, dose: 25.0 mg/kg/injection, schedule: Q01DX009 (ip), vehicle: Klucel (hydroxypropylcellulose) (HPC)) is 96 % of control; the T/C (endpoint: mean survival time, dose: 50.0 mg/kg/injection, schedule: Q01DX009 (ip), vehicle: Klucel (hydroxypropylcellulose) (HPC)) is 102 % of control; the T/C (endpoint: mean survival time, dose: 100.0 mg/kg/injection, schedule: Q01DX009 (ip), vehicle: Klucel (hydroxypropylcellulose) (HPC)) was 103 % of control; the T/C (endpoint: mean survival time, dose: 200.0 mg/kg/injection, schedule: Q01DX009 (ip), vehicle: Klucel (hydroxypropylcellulose) (HPC)) is 105 % of control; the T/C (endpoint: mean survival time, dose: 400.0 mg/kg/injection, schedule: Q01DX009 (ip), vehicle: Klucel (hydroxypropylcellulose) (HPC)) is 102 % of control.
With `CCCCCCCCCCCCCCOS(=O)(=O)O`, the T/C was 93 % of control (endpoint: mean survival time, dose: 37.5 mg/kg/injection, schedule: Q01DX009 (ip), vehicle: saline) and 93 % of control (endpoint: mean survival time, dose: 75.0 mg/kg/injection, schedule: Q01DX009 (ip), vehicle: saline).
With `COC1=CC(=O)C2(C)CC=CCC2C1` (stereo not given), the T/C was 98 % of control under setting [1]; 92 % of control under setting [2]; 95 % of control under setting [3]; 103 % of control under setting [4]; 95 % of control under setting [5]; 91 % of control under setting [6].
`CN(C)/C=N/N=C1c2ccccc2-c2ccccc21`: the T/C under setting [1] is 93 % of control; the T/C under setting [2] is 100 % of control; the T/C under setting [3] is 98 % of control; the T/C under setting [4] was 94 % of control; the T/C under setting [5] is 90 % of control; the T/C under setting [6] is 101 % of control.
